# Activity calls are given as the source filed them. How the calls were made is not given here.
# Test system: ADSC/ECFC co-culture, VEGF-stimulated, CD31 tube area
# Assay: inhibition of endothelial tube formation, dose response, imaging, VEGF stimulation, CD31 staining, tube area, IC50 (AID 1117337)
row,SMILES,IC50
1,COc1ccc2cc1Oc1ccc(cc1)C[C@H]1c3c(cc4c(c3Oc3cc5c(cc3OC)CCN(C)[C@@H]5C2)OCO4)CCN1C,3.02 µM
2,Cc1onc(-c2c(Cl)cccc2Cl)c1C(=O)Cl,> 10 µM (inactive)
3,Cc1ccc2c(Br)cc(Br)c(O)c2n1,> 10 µM (inactive)
4,CCOC(=O)C=C(C)C=CC[C@@H](C)CCCC(C)C,> 10 µM (inactive)
5,COP(=S)(OC)Oc1ccc(Sc2ccc(OP(=S)(OC)OC)cc2)cc1,> 10 µM (inactive)
6,CCCCCCOC(=O)c1cccnc1,> 10 µM (inactive)
7,CC[C@]1(O)CC[C@H]2[C@@H]3CCC4=CCCC[C@@H]4[C@H]3CC[C@@]21C,6.25 µM (inactive)
8,O=c1[nH]c(=O)n([C@H]2C[C@H](O)[C@@H](CO)O2)cc1Br,3.85 µM
9,C[C@@]12C(=O)OC(=O)[C@]1(C)C1CCC2O1,1.23 µM
10,COc1cc(C=C2CCC/C(=C\c3ccc(O)c(OC)c3)C2=O)ccc1O,> 10 µM (inactive)
11,Cc1c(O)cccc1C(=O)N[C@@H](CSc1ccccc1)[C@H](O)CN1C[C@H]2CCCC[C@H]2C[C@H]1C(=O)NC(C)(C)C,> 10 µM (inactive)
12,O=C1C2CC=CCC2C(=O)N1SC(Cl)(Cl)Cl (configuration not stated),> 10 µM (inactive)
13,COc1cc2nc(N3CCN(C(=O)C4COc5ccccc5O4)CC3)nc(N)c2cc1OC (configuration not stated),> 10 µM (inactive)
14,CC1CCC(C(C)C)C(OC(=O)c2ccccc2O)C1 (configuration not stated),> 10 µM (inactive)
15,CCCCCCCCCCCCCCCCNc1ccc(C(=O)O)cc1,0.367 µM
16,CN1CC[C@H](c2c(O)cc(O)c3c(=O)cc(-c4ccccc4Cl)oc23)[C@H](O)C1,0.114 µM
17,CCCCCCCCCCCCCCCCCCOP(=O)([O-])OC1CC[N+](C)(C)CC1,> 10 µM (inactive)
18,CCC1C(=O)OCC1Cc1cncn1C (configuration not stated),> 10 µM (inactive)
19,CC(C)(C)CC(C)(C)c1ccc(O)cc1,> 10 µM (inactive)
20,CCN(CC)C(=O)/C(C#N)=C/c1cc(O)c(O)c([N+](=O)[O-])c1,> 10 µM (inactive)
21,CCN(CC)CCNc1ccc(CO)c2sc3ccccc3c(=O)c12,8.35 µM (inactive)
22,CC(C)C[C@H](NC(=O)[C@H](CCc1ccccc1)NC(=O)CN1CCOCC1)C(=O)N[C@@H](Cc1ccccc1)C(=O)N[C@@H](CC(C)C)C(=O)[C@@]1(C)CO1,0.0204 µM
23,OC[C@H]1O[C@@H](n2cnc3c(=S)nc[nH]c32)[C@H](O)[C@@H]1O,1.42 µM
24,COc1cc(-c2ccc(=O)[nH]n2)ccc1OC(F)F,1.22 µM

row,SMILES,IC50
1,COc1ccccc1N1CCN(CC(O)COc2cc(OC)c(OC)c(OC)c2)CC1 (configuration not stated),> 10 µM (inactive)
2,Oc1ccc(O)cc1,> 10 µM (inactive)
3,CCCOc1ccc2nc(NC(=O)OC)[nH]c2c1,0.328 µM
4,CS(=O)(=O)CCNCc1ccc(-c2ccc3ncnc(Nc4ccc(OCc5cccc(F)c5)c(Cl)c4)c3c2)o1,> 10 µM (inactive)
5,NC(=O)n1c(O)c(C(=O)c2cccs2)c2cc(Cl)ccc21,> 10 µM (inactive)
6,O=C(Nc1ccc(Oc2ccc(Cl)cc2)c(Cl)c1)c1cc(I)cc(I)c1O,> 10 µM (inactive)
7,CCOC(=O)C1=C[C@]2(CC)CCCN3CCc4c(n1c1ccccc41)[C@@H]32,> 10 µM (inactive)
8,CCc1oc2ccccc2c1C(=O)c1cc(I)c(O)c(I)c1,5.85 µM (inactive)
9,COc1cccc2c1C(=O)c1c(O)c3c(c(O)c1C2=O)C[C@@](O)(C(=O)CO)C[C@@H]3O[C@H]1C[C@H](N)[C@H](O[C@@H]2CCCCO2)[C@H](C)O1,0.0063 µM
10,Nc1nc(=O)n([C@@H]2O[C@H](CO)[C@@H](O)[C@@H]2F)cc1I,3.47 µM
11,O=C(NOCC1CC1)c1ccc(F)c(F)c1Nc1ccc(I)cc1Cl,0.368 µM
12,CC(C)c1c(C(=O)Nc2ccccc2)c(-c2ccccc2)c(-c2ccc(F)cc2)n1CC[C@@H](O)C[C@@H](O)CC(=O)O,> 10 µM (inactive)
13,COc1ccccc1OCCNCC(O)COc1cccc2[nH]c3ccccc3c12 (configuration not stated),> 10 µM (inactive)
14,O=c1c(-c2ccc(O)cc2)coc2cc(O)cc(O)c12,> 10 µM (inactive)
15,CCCCCCCCCCCC(=O)[O][Sn]([CH2]CCC)([CH2]CCC)[O]C(=O)CCCCCCCCCCC,2.01 µM
16,CCCCCCCCCCCCNCCNCCNCC(=O)O,6.04 µM (inactive)
17,CCCCCCCC[N+](C)(C)CCCCCCCC,1.39 µM
18,CO[C@@]12[C@H](COC(N)=O)C3=C(C(=O)C(C)=C(N)C3=O)N1C[C@@H]1N[C@@H]12,0.102 µM
19,CCC=CCC=CCC=CCCCCCCCC(=O)O,> 10 µM (inactive)
20,CCCCCCNC(=O)n1cc(F)c(=O)[nH]c1=O,4.49 µM
21,CC(C(O)c1ccccc1)N(C)C/C=C/c1ccccc1 (configuration not stated),> 10 µM (inactive)
22,C[C@]12CC[C@@H]3c4ccc(O)cc4CC[C@H]3[C@@H]1CC[C@@H]2OC(=O)CCC1CCCC1,6.37 µM (inactive)
23,CCCCCCCCCCCCCCCC(=O)OCC=C(C)C=CC=C(C)C=CC1=C(C)CCCC1(C)C,> 10 µM (inactive)
24,Cc1c(O)cc2c(c1C)O[C@](C)(CCC[C@H](C)CCC[C@H](C)CCCC(C)C)CC2,> 10 µM (inactive)

row,SMILES,IC50
1,O=C(O)c1ccc2[nH]cc(CCCCN3CC=C(c4ccccc4)CC3)c2c1,> 10 µM (inactive)
2,C[C@H](O)CN(C)C,> 10 µM (inactive)
3,Nc1ncn([C@@H]2O[C@H](CO)[C@@H](O)[C@H]2O)c(=O)n1,> 10 µM (inactive)
4,OCCN1CCN(CCCN2c3ccccc3Sc3ccc(Cl)cc32)CC1,> 10 µM (inactive)
5,CCOC(=O)[C@H](CCc1ccccc1)N[C@@H](C)C(=O)N1C(=O)N(C)C[C@H]1C(=O)O,> 10 µM (inactive)
6,C[n+]1cc2c3c(ccc2c2ccc4cc5c(cc4c21)OCO5)OCO3,0.537 µM
7,Cc1cc2nc3ccc(=[N+](C)C)cc-3sc2cc1N,2.45 µM
8,O=c1c(-c2ccccc2)c1-c1ccccc1,3.84 µM
9,CCN(CC)C(=O)c1cccnc1,> 10 µM (inactive)
10,COc1ccc(Cc2nccc3cc(OC)c(OC)cc23)cc1OC,7.8 µM (inactive)
11,O=[N+]([O-])c1ccc(Oc2ccc(N=C=S)cc2)cc1,3.72 µM
12,Oc1c(Cl)cc(Cl)c2cccnc12,2 µM
13,C[C@@H](O[C@H]1OCCN(Cc2n[nH]c(=O)[nH]2)[C@H]1c1ccc(F)cc1)c1cc(C(F)(F)F)cc(C(F)(F)F)c1,6.89 µM (inactive)
14,CCOC(=O)[C@H](CCc1ccccc1)N[C@@H](C)C(=O)N1Cc2cc(OC)c(OC)cc2C[C@H]1C(=O)O,> 10 µM (inactive)
15,CCN[C@@H](C)Cc1cccc(C(F)(F)F)c1,> 10 µM (inactive)
16,CCN(CC)CCNC(=O)c1c(C)[nH]c(/C=C2\C(=O)Nc3ccc(F)cc32)c1C,0.0254 µM
17,Nc1nc(=S)c2[nH]cnc2[nH]1,0.622 µM
18,COC(=O)Nc1nc2ccc(C(=O)c3cccs3)cc2[nH]1,0.102 µM
19,COc1ccc(-c2ccc3cc(C(=O)O)ccc3c2)cc1C12CC3CC(CC(C3)C1)C2,0.524 µM
20,Cc1cc(C2CCCCC2)n(O)c(=O)c1,> 10 µM (inactive)
21,Cc1cc(O)c2c(O)c3c(O)cccc3cc2c1,> 10 µM (inactive)
22,CCCCc1oc2ccc(NS(C)(=O)=O)cc2c1C(=O)c1ccc(OCCCN(CCCC)CCCC)cc1,2.75 µM
23,C[S+](CC[C@H](N)C(=O)O)C[C@H]1O[C@@H](n2cnc3c(N)ncnc32)[C@H](O)[C@H]1O (some centres not stated),> 10 µM (inactive)
24,O=C(CBr)Nc1ccc(Cl)cc1C(=O)c1ccccc1F,> 10 µM (inactive)

# Source: PubChem BioAssay AID1117337 (Cheminformatics & Chemogenomics Research Group (CCRG), …, 2015)
